In patent US20150284331A1 (priority 2012, published 2015):

Key:
butyrylcholinesterase = biological target: T1, butyrylcholinesterase (Rattus norvegicus, UniProt Q9JKC1); test: inhibition of butyrylcholinesterase (rat serum); type: biochemical; conditions: rat serum enzyme; final concentration 4×10−5 mol/L
T1 construct: Butyrylcholinesterase: rat serum; from tissue; host or cells: rat serum
Procedure: (§1) Sample processing: All samples were formulated as 10-2 mol/L solution by using 100% DMSO. 10-2 mol/L solution was used in microdetermination. 1 μL was taken to use in single tube experiment.
(§2) Solvent control: 0.4% DMSO was used in microdetermination. The inhibition ratio of the sample was obtained wherein the effect of solvent was deducted.
Butyrylcholinesterase: rat serum

acetylcholinesterase = biological target: T2, acetylcholinesterase (Rattus norvegicus, UniProt P37136); test: biochemical; type: biochemical; conditions: rat cortex enzyme; for acetylcholinesterase inhibitory activity inhibition ratio (%): final concentration 4×10−5 mol/L; for IC50: read-out: acetylcholinesterase inhibitory activity IC50 (nmol)
T2 construct: Acetylcholinesterase: rat cortex; from tissue; host or cells: rat cortex
T2 sequence (P37136 32-614): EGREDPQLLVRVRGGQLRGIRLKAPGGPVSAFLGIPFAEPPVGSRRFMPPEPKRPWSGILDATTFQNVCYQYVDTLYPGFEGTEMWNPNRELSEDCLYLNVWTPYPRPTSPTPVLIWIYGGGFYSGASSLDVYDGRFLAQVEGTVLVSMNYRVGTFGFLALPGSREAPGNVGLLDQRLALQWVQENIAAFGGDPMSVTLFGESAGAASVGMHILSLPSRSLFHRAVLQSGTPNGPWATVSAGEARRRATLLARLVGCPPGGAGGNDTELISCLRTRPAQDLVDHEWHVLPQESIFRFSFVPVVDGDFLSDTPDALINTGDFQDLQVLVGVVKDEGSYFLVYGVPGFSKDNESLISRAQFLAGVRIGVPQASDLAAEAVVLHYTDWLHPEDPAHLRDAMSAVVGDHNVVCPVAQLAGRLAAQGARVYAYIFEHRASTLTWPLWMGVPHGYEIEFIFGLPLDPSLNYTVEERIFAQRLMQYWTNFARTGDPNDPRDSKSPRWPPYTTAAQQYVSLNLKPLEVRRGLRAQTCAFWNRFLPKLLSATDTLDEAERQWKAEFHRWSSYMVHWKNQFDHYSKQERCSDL
Procedure: as §1, §2
Acetylcholinesterase: rat cortex

KM mice = test: acute toxicities of compounds on mice; type: in vivo; conditions: 100 mg/kg oral
Procedure: Sample processing: When getting samples, they were undissolved. […] The samples were suspensions. Experimental animals: KM mice, 22-29 g, half male and half female.
Experimental method: Mice were randomly divided into groups. 100 mg/kg of test compounds DC19 and DC20 were administered orally, respectively.

T1 sequence (Q9JKC1 24-597): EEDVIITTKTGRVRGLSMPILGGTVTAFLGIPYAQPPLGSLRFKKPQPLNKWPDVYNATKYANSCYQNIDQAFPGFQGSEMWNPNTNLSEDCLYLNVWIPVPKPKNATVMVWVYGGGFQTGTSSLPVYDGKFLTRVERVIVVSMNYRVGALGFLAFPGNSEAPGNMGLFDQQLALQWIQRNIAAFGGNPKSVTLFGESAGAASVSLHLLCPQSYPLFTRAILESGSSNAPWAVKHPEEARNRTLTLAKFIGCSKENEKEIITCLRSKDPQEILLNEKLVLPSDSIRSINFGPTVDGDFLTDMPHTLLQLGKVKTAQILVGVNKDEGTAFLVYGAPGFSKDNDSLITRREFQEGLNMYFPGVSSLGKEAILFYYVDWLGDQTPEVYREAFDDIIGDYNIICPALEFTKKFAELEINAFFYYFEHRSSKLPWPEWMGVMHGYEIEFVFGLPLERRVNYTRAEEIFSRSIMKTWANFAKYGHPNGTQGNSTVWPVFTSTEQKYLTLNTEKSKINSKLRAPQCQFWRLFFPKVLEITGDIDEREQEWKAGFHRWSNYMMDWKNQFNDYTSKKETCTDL

## COc1cc2c(cc1OC)C(=O)C(CC1(F)CCN(Cc3ccccc3)CC1)C2 (stereo not drawn) [DC19, 2-((l-benzyl-4-fluoropiperidin-4-yl)methyl)-5,6-dimethoxy-2,3-dihydro-1H-inden-1-one]
butyrylcholinesterase
  butyrylcholinesterase inhibitory activity inhibition ratio (%): 71.58%
acetylcholinesterase
  acetylcholinesterase inhibitory activity inhibition ratio (%): 82.44%
  IC50: 0.96 nM
KM mice; female KM mouse
  response symptoms: 30 min squint
KM mice; male KM mouse
  time of death after administration: 3 h after administration, death

## COc1cc2c(cc1OC)C(=O)C(CC1(F)CC3CCC(C1)N3Cc1cccc(C(F)(F)F)c1)C2 (stereo not drawn) [DC70, 2-((3-fluoro-8-(3-(trifluoromethyl)benzyl)-8-azabicyclo[3.2.1]octan-3-yl)methyl)-5,6-dimethoxy-2,3-dihydro-1H-inden-1-one]
butyrylcholinesterase
  butyrylcholinesterase inhibitory activity inhibition ratio (%): 0.09%
acetylcholinesterase
  acetylcholinesterase inhibitory activity inhibition ratio (%): 76.51%

## COc1cc2c(cc1OC)C(=O)C(CC1(F)CC3CCC(C1)N3Cc1cc(F)cc(F)c1F)C2 (stereo not drawn) [DC75, 2-((3-fluoro-8-(2,3,5-trifluorobenzyl)-8-azabicyclo[3.2.1]octan-3-yl)methyl)-5,6-dimethoxy-2,3-dihydro-1H-inden-1-one]
butyrylcholinesterase
  butyrylcholinesterase inhibitory activity inhibition ratio (%): 13.53%
acetylcholinesterase
  acetylcholinesterase inhibitory activity inhibition ratio (%): 72.53%

## CCOc1cc2c(cc1OCC)C(=O)C(CC1(F)CCN(Cc3ccccc3F)CC1)C2 (stereo not drawn) [DC77, 5,6-diethoxy-2-((4-fluoro-1-(2-fluorobenzyl)piperidin-4-yl)methyl)-2,3-dihydro-1H-inden-1-one]
butyrylcholinesterase
  butyrylcholinesterase inhibitory activity inhibition ratio (%): 72.0%
acetylcholinesterase
  acetylcholinesterase inhibitory activity inhibition ratio (%): 97.09%
  IC50: 0.9 nM

## CCCOc1cc2c(cc1OCCC)C(=O)C(CC1(F)CCN(Cc3ccccc3F)CC1)C2 (stereo not drawn) [DC78, 2-((4-fluoro-1-(2-fluorobenzyl)piperidin-4-yl)methyl)-5,6-dipropoxy-2,3-dihydro-1H-inden-1-one]
butyrylcholinesterase
  butyrylcholinesterase inhibitory activity inhibition ratio (%): 71.0%
acetylcholinesterase
  acetylcholinesterase inhibitory activity inhibition ratio (%): 95.04%
  IC50: 0.96 nM

## CCOCOc1cc2c(cc1OCOCC)C(=O)C(CC1(F)CCN(Cc3ccccc3F)CC1)C2 (stereo not drawn) [DC79, 5,6-bis(ethoxymethoxy)-2-((4-fluoro-1-(2-fluorobenzyl)piperidin-4-yl)methyl)-2,3-dihydro-1H-inden-1-one]
butyrylcholinesterase
  butyrylcholinesterase inhibitory activity inhibition ratio (%): 75.0%
acetylcholinesterase
  acetylcholinesterase inhibitory activity inhibition ratio (%): 93.05%
  IC50: 1.86 nM

## O=C1c2cc(OCC(F)(F)F)c(OCC(F)(F)F)cc2CC1CC1(F)CCN(Cc2ccccc2F)CC1 (stereo not drawn) [DC103, 2-((4-fluoro-1-(2-fluorobenzyl)piperidin-4-yl)methyl)-5,6-bis(2,2,2-trifluoroethoxy)-2,3-dihydro-1H-inden-1-one]
butyrylcholinesterase
  butyrylcholinesterase inhibitory activity inhibition ratio (%): 70.0%
acetylcholinesterase
  acetylcholinesterase inhibitory activity inhibition ratio (%): 92.04%
  IC50: 0.86 nM

## O=C1c2cc(OC(F)F)c(OC(F)F)cc2CC1CC1(F)CCN(Cc2ccccc2F)CC1 (stereo not drawn) [DC104, 5,6-bis(difluoromethoxy)-2-((4-fluoro-1-(2-fluorobenzyl)piperidin-4-yl)methyl)-2,3-dihydro-1H-inden-1-one]
butyrylcholinesterase
  butyrylcholinesterase inhibitory activity inhibition ratio (%): 71.8%
acetylcholinesterase
  acetylcholinesterase inhibitory activity inhibition ratio (%): 98.02%
  IC50: 0.76 nM

## O=C1c2cc(OCC(F)F)c(OCC(F)F)cc2CC1CC1(F)CCN(Cc2ccccc2F)CC1 (stereo not drawn) [DC105, 5,6-bis(2,2-difluoroethoxy)-2-((4-fluoro-1-(2-fluorobenzyl)piperidin-4-yl)methyl)-2,3-dihydro-1H-inden-1-one]
butyrylcholinesterase
  butyrylcholinesterase inhibitory activity inhibition ratio (%): 61.5%
acetylcholinesterase
  acetylcholinesterase inhibitory activity inhibition ratio (%): 98.14%
  IC50: 0.99 nM

## O=C1c2cc(Cl)c(Cl)cc2CC1CC1(F)CCN(Cc2ccccc2F)CC1 (stereo not drawn) [DC106, 5,6-dichloro-2-((4-fluoro-1-(2-fluorobenzyl)piperidin-4-yl)methyl)-2,3-dihydro-1H-inden-1-one]
butyrylcholinesterase
  butyrylcholinesterase inhibitory activity inhibition ratio (%): 88.0%
acetylcholinesterase
  acetylcholinesterase inhibitory activity inhibition ratio (%): 70.05%
  IC50: 500 nM

## COC(=O)C1CC(F)(CC2Cc3cc(OC)c(OC)cc3C2=O)CCN1Cc1ccccc1F (stereo not drawn) [DC107, methyl 4-((5,6-dimethoxy-1-oxo-2,3-dihydro-1H-inden-2-yl)methyl)-4-fluoro-1-(2-fluorobenzyl)piperidine-2-carboxylate]
butyrylcholinesterase
  butyrylcholinesterase inhibitory activity inhibition ratio (%): 75.6%
acetylcholinesterase
  acetylcholinesterase inhibitory activity inhibition ratio (%): 76.03%
  IC50: 23 nM

## COc1cc2c(cc1OC)C(=O)C(CC1(F)CCN(Cc3ccccc3F)C(C(=O)O)C1)C2 (stereo not drawn) [DC108, 4-((5,6-dimethoxy-1-oxo-2,3-dihydro-1H-inden-2-yl)methyl)-4-fluoro-1-(2-fluorobenzyl)piperidine-2-carboxylic acid]
butyrylcholinesterase
  butyrylcholinesterase inhibitory activity inhibition ratio (%): 71.58%
acetylcholinesterase
  acetylcholinesterase inhibitory activity inhibition ratio (%): 82.49%
  IC50: 9.96 nM

## COc1cc2c(cc1OC)C(=O)C(CC1(F)CCN(Cc3ccccc3F)C(C)C1)C2 (stereo not drawn) [DC109, 2-((4-fluoro-1-(2-fluorobenzyl)-2-methylpiperidin-4-yl)methyl)-5,6-dimethoxy-2,3-dihydro-1H-inden-1-one]
butyrylcholinesterase
  butyrylcholinesterase inhibitory activity inhibition ratio (%): 76.62%
acetylcholinesterase
  acetylcholinesterase inhibitory activity inhibition ratio (%): 88.44%
  IC50: 10.9 nM

## COc1cc2c(cc1OC)C(=O)C(CC1(F)CCN(CCc3ccccc3)CC1)C2 (stereo not drawn) [DC110, 2-((4-fluoro-1-phenethylpiperidin-4-yl)methyl)-5,6-dimethoxy-2,3-dihydro-1H-inden-1-one]
butyrylcholinesterase
  butyrylcholinesterase inhibitory activity inhibition ratio (%): 66.30%
acetylcholinesterase
  acetylcholinesterase inhibitory activity inhibition ratio (%): 88.55%
  IC50: 12.3 nM

## COc1cc2c(cc1OC)C(=O)C(CC1(F)CCN(CCc3ccccc3F)CC1)C2 (stereo not drawn) [DC111, 2-((4-fluoro-1-(2-fluorophenethyl)piperidin-4-yl)methyl)-5,6-dimethoxy-2,3-dihydro-1H-inden-1-one]
butyrylcholinesterase
  butyrylcholinesterase inhibitory activity inhibition ratio (%): 71.58%
acetylcholinesterase
  acetylcholinesterase inhibitory activity inhibition ratio (%): 92.44%
  IC50: 1.96 nM
